Data from article PMC5453487, “Targeting YAP/TAZ-TEAD protein-protein interactions using fragment-based and computational modeling approaches” (PLoS ONE, 2017).

Target: mouse TEAD4 (mTEAD4) (Mus musculus, UniProt Q62296)
Assay: X-ray co-crystal structure ([…] Å), ITC; also thermal shift assay and MST ([…])
Type: binding

Chain of mouse TEAD4 (mTEAD4) (Q62296 210-427): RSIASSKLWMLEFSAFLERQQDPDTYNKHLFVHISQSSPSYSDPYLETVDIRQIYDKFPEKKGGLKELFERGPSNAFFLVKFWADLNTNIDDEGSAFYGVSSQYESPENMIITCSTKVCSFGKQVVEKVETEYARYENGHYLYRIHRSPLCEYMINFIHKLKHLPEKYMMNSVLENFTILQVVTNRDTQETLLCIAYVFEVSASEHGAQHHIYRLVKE

- Kd: ~300 µM
SMILES: O=C(O)C(c1ccccc1)n1cccc1 (stereo not shown) [compound 1, fragment 1]
